Data: patent US20110028566A1, “COMPOSITIONS AND PRODUCTS CONTAINING CYCLOALIPHATIC DIOL ANTIMICROBIAL AGENTS AND METHODS OF USING THE COMPOSITIONS AND PRODUCTS” (EASTMAN CHEMICAL COMPANY, priority 2009, published 2011)
“And” between values parts separate entries of the source, which are not always exact repeats. Equal entries are not always repeated.

Tests used:
Format in all cases: cell-based
[1] = tested on: Staphylococcus aureus ATCC 25923; assay: MIC determination and synergy testing (Kull synergy index), microplate; settings: for QB, MIC of CG alone: plate 125D
Method: (§1) The test cultures are listed in Table 7 along with the incubation temperatures used for growth and minimum inhibitory concentration (MIC) testing. […] C. albicans was cultured in Sabouraud dextrose broth (SDB) for approximately 44-52 hours for preparation of inoculum. A. niger was cultured on Sabouraud dextrose agar (SDA) for 3-4 days until there was confluent growth and visible spore formation. Spores were harvested from the SDA plates by flooding the surface of the plate with 5-10 mL of phosphate-buffered saline (PBS) and gently spreading the liquid across the surface of the plate with a sterile T-shaped plastic spreader (Copan Diagnostics) until there was a well-mixed suspension of spores. The resulting spore suspension was collected using a serological pipette and stored at 2-8° C. until use.
(§2) Inoculum concentration was determined by dilution plating of the cultures or spore suspension. A serial dilution in PBS was made to 10^−8 for the bacterial cultures or 10^−5 for the fungal cultures. Fifty or 100 μL of the final dilution was spread on two Trypticase-soy agar (TSA) plates for bacteria or two SDA plates for fungi. After 24 to 48 hours plates were counted and the concentrations used in each experiment were calculated.
(§3) The antimicrobial agents tested for synergy along with the respective diluents and working stock solution concentrations are shown below. For determination of MIC ranges, individual antimicrobial agent stock solutions were added to sterile medium to yield the highest level test concentrations, and then serially diluted in the medium to prepare the range of test concentrations. For synergy testing individual test concentrations were prepared in sterile medium, and then blended to form the desired combinations.
(§4) MICs were determined using a high-throughput microplate method. Individual antimicrobial agents were added to TSB (pH 7.3) for bacterial testing or SDB (pH 5.6) for fungal testing at the highest concentration to be tested. A serial dilution series was prepared at a dilution ratio of 1:1.3333 such that a one log range was covered in nine dilutions. Two-hundred microliters of the diluted antimicrobial agents were dispensed into four wells each of a sterile, 96-well, flat-bottom microplate (Nalge Nunc International). Four additional wells of the highest concentration were dispensed to serve as uninoculated high-level controls. Eight additional wells containing only broth medium were also prepared, four to serve as negative controls and four as positive controls. Three wells of each antimicrobial agent dilution were inoculated with one of the test strains in Table 7. The final well of each antimicrobial agent dilution was left uninoculated to serve as a control (and means of compensating) for any absorbance/turbidity due to the test compounds.
(§5) Microplates were inoculated using the cultures or spore suspensions prepared as described above. The S. aureus cultures were used undiluted, while the E. coli and P. aeruginosa cultures were used either undiluted or after a 1:2 dilution in sterile TSB. The C. albicans cultures were used either undiluted or following a 2-fold concentration by centrifugation. One of two means of inoculation was used to deliver a final concentration of approximately 10^5 colony-forming units (CFU)/mL of C. albicans, 10^5 spores/mL of A. niger, or 10^6 CFU/mL of bacteria. The primary method used a stainless steel pin replicator (Nalge Nunc International) mounted on a hand-operated bench-top press (Schmidt Technology Corporation) fitted with a custom-built microplate holder to dispense one microliter of each inoculum from a “master” plate containing 50-100 μL of culture into the wells of the test plate. The pin replicator was sterilized before and between inoculations by immersing in ethanol and flaming. The alternative method of inoculation was by directly pipetting 20 μL of a 1:20 dilution of each culture or spore suspension into the appropriate wells of the test plates.

[2] = tested on: Pseudomonas aeruginosa ATCC 27853; assay: as above; settings: for QB, MIC of CG alone: P. aeruginosa, plate 169E
Method: as §1, §2, §3, §4, §5

[3] = tested on: Candida albicans ATCC 10231; assay: as above; settings: for QB, MIC of MP alone: plate 128B; for QB, MIC of PE alone: plates 116B, 240B, 252B
Method: as §1, §2, §3, §4, §5

[4] = tested on: Aspergillus niger ATCC 16404; assay: as above; settings: for QB, MIC of CG alone / QB, MIC of PE alone: A. niger; for QB, MIC of PE alone: plates 122C, 242C
Method: as §1, §2
The A. niger spore suspensions were concentrated to a level of 1-2×10^8 spores/mL by centrifugation and resuspension in a portion of the resulting supernatant.
as §3, §4
Microplates were inoculated using the cultures or spore suspensions prepared as described above. The S. aureus cultures were used undiluted, while the E. coli and P. aeruginosa cultures were used either undiluted or after a 1:2 dilution in sterile TSB. The C. albicans cultures were used either undiluted or following a 2-fold concentration by centrifugation. One of two means of inoculation was used to deliver a final concentration of approximately 10^5 colony-forming units (CFU)/mL of C. albicans, 10^5 spores/mL of A. niger, or 10^6 CFU/mL of bacteria. The primary method used a stainless steel pin replicator (Nalge Nunc International) mounted on a hand-operated bench-top press (Schmidt Technology Corporation) fitted with a custom-built microplate holder to dispense one microliter of each inoculum from a “master” plate containing 50-100 μL of culture into the wells of the test plate. The pin replicator was sterilized before and between inoculations by immersing in ethanol and flaming. […]

[5] = tested on: Corynebacterium xerosis ATCC #373; assay: Synergy testing in brain heart infusion media, 96-well plates; settings: for % EHG / SI: CHDM with EHG; for % EHG: relative to EHG alone; for QB/b (EHG): inhibitory concentration of EHG alone or in combination with CHDM, plate EX194-195-EHG-Syn1; for SI: synergy index
Method: as §4
The individual antimicrobial agents listed in Table 8 were tested in combination with CHDM. The MIC values determined in the individual antimicrobial agent testing described above were used to establish a target MIC. In each experiment, MIC values for the individual antimicrobial agents and CHDM were determined in order to eliminate any variability due to comparison of data from different dates. Testing was done over a range of four concentrations separated by a factor of 1.3333 as described above. The four concentrations were the target MIC plus one dilution level higher and two dilution levels lower than the target. Combinations of antimicrobial agents and CHDM were made at 50% of the target MIC values and the higher and lower individual levels. Additionally, 50% level series were also tested with the antimicrobial agent or CHDM at one dilution level lower than the target level. The method of Kull et. al. (F. C. Kull et al., Applied Microbiology, 9, p 538-541 (1961)) was used to determine whether there was synergistic activity between CHDM and each antimicrobial agent for inhibition of each of the five microbes. MICs for the individually-tested CHDM and antimicrobial agent, as well as the concentration of CHDM and antimicrobial agent in the combination MIC were used to calculate a synergy index (SI) according to the equation: […]
where Qa and Qb are the minimum inhibitory concentrations for CHDM and a antimicrobial agent, respectively, when tested independently, and QA and QB are the concentrations of CHDM and a antimicrobial agent, respectively, in combination at an inhibitory concentration. Accordingly, synergy is defined as a SI less than one.
Experiments were also conducted using Corynebacterium xerosis, which is a bacterium known to cause body odor. […] The Corynebacterium xerosis bacterium used in this example was ATCC #373. The seed culture was grown in brain heart infusion medium. Assays were performed in brain heart infusion media in 96-well plates as described in Example 2. The brain heart infusion medium was at a pH of about 7.4. All growth was conducted at 37° C.

[6] = tested on: Escherichia coli ATCC 25922; assay: MIC determination and synergy testing (Kull synergy index), microplate; settings: E. coli; for QB, MIC of MP alone: plate 108A; for QB, MIC of PE alone: plates 105A, 213A, 223A
Method: as §1, §2, §3, §4, §5

[7] = C. albicans, day 2 of incubation
[8] = C. albicans, day 3 of incubation

CCCCCCC(O)CO (centres unmarked) [Caprylyl glycol (CG)]
QB, MIC of CG alone ([1]; S. aureus, day 1 of incubation): 0.24 weight percent
QB, MIC of CG alone ([1]; S. aureus, day 2 of incubation): 0.32 weight percent
QB, MIC of CG alone ([2]; day 1 of incubation): 0.23 weight percent
QB, MIC of CG alone ([2]; day 2 of incubation): 0.30 weight percent
QB, MIC of CG alone ([2]; day 3 of incubation): 0.30 weight percent
QB, MIC of CG alone ([3]; C. albicans, day 3 of incubation, plates 117B, 254B): 0.11 weight percent and 0.22 weight percent
QB, MIC of CG alone ([4]; day 2 of incubation, plates 123C, 217C): 0.17 weight percent and 0.10 weight percent
QB, MIC of CG alone ([4]; day 3 of incubation, plate 123C): 0.13 weight percent

CC1(C)C(=O)N(CO)C(=O)N1CO [DMDMH, DMDM Hydantoin, reference compound]
QB/b ([2]; DMDM hydantoin alone (QB) or in combination with CHDM (b), plate 150E, day 1): 0.049
QB/b ([3]; DMDM hydantoin alone (QB) or in combination with CHDM (b), plate 241B, day 2): 0.22
QB/b ([3]; DMDM hydantoin alone (QB) or in combination with CHDM (b), plate 241B, day 3): 0.22
QB/b ([3]; DMDM hydantoin alone (QB) or in combination with CHDM (b), plate 244B, day 2): 0.36
QB/b ([3]; DMDM hydantoin alone (QB) or in combination with CHDM (b), plate 244B, day 3): 0.36
QB/b ([3]; DMDM hydantoin alone (QB) or in combination with CHDM (b), plate 263B, day 2): 0.45
QB/b ([3]; DMDM hydantoin alone (QB) or in combination with CHDM (b), plate 263B, day 3): 0.80
QB/b ([3]; DMDM hydantoin alone (QB) or in combination with CHDM (b), plate 264B, day 2): 0.34
QB/b ([3]; DMDM hydantoin alone (QB) or in combination with CHDM (b), plate 264B, day 3): 0.60
QB/b ([4]; DMDM hydantoin alone (QB) or in combination with CHDM (b), plate 196C, day 3): 0.14

CCCCC(CC)COCC(O)CO (centres unmarked) [EHG, ethylhexyl glycerin, reference compound]
% EHG ([5]; Day 2): 100.0%
QB/b (EHG) ([5]; Day 2): 0.107
SI ([5]; Day 2): 1.00
% EHG ([5]; Day 3): 100.0%
QB/b (EHG) ([5]; Day 3): 0.080
SI ([5]; Day 3): 1.00

Cn1sccc1=O [MIT, Methylisothiazolinone, reference compound]
QB/b ([1]; MIT: MIC alone (QB) or conc. in combination with CHDM (b), plate 137D, day 2): 0.002
Synergism of antimicrobial agent in combination with 1,4-CHDM for P. aeruginosa (in words; in the 12th table the cell names the organism and table number) ([2]; Kull synergy index, synergistic when at least two results SI<1): P. aeruginosa (26)
QB/b ([2]; MIT: MIC alone (QB) or conc. in combination with CHDM (b), plate 147E, day 1): 0.00053
QB/b ([2]; MIT: MIC alone (QB) or conc. in combination with CHDM (b), plate 147E, day 2): 0.00093
QB/b ([2]; MIT: MIC alone (QB) or conc. in combination with CHDM (b), plate 210E, day 1): 0.0006
QB/b ([2]; MIT: MIC alone (QB) or conc. in combination with CHDM (b), plate 210E, day 2): 0.001
QB/b ([2]; MIT: MIC alone (QB) or conc. in combination with CHDM (b), plate 249E, day 1): 0.00048
QB/b ([2]; MIT: MIC alone (QB) or conc. in combination with CHDM (b), plate 249E, day 2): 0.0009
QB/b ([3]; MIT: MIC alone (QB) or conc. in combination with CHDM (b), plate 162B, day 3): 0.012
QB/b ([3]; MIT: MIC alone (QB) or conc. in combination with CHDM (b), plate 200B, day 2): 0.021
QB/b ([3]; MIT: MIC alone (QB) or conc. in combination with CHDM (b), plate 200B, day 3): 0.021
QB/b ([4]; MIT: MIC alone (QB) or conc. in combination with CHDM (b), plate 193C, day 2): 0.04
QB/b ([4]; MIT: MIC alone (QB) or conc. in combination with CHDM (b), plate 193C, day 3): 0.03
QB/b ([4]; MIT: MIC alone (QB) or conc. in combination with CHDM (b), plate 214C, day 2): 0.04
QB/b ([4]; MIT: MIC alone (QB) or conc. in combination with CHDM (b), plate 214C, day 3): 0.04

COC(=O)c1ccc(O)cc1 [Methylparaben (MP)]
QB, MIC of MP alone ([6]; day 1 of incubation): 0.112 weight percent
QB, MIC of MP alone ([6]; day 2 of incubation): 0.112 weight percent
QB, MIC of MP alone [3, 7]: 0.060 weight percent
QB, MIC of MP alone [3, 8]: 0.080 weight percent

OCCOc1ccccc1 [Phenoxyethanol (PE)]
QB, MIC of PE alone ([1]; S. aureus, day 2 of incubation, plates 124D, 219D): 0.73 weight percent and 0.55 weight percent
QB, MIC of PE alone ([6]; day 1 of incubation): 0.36 weight percent and 0.33 weight percent and 0.48 weight percent
QB, MIC of PE alone ([6]; day 2 of incubation): 0.48 weight percent and 0.36 weight percent and 0.43 weight percent
QB, MIC of PE alone [3, 7]: 0.22 weight percent and 0.27 weight percent and 0.23 weight percent
QB, MIC of PE alone [3, 8]: 0.22 weight percent and 0.27 weight percent and 0.30 weight percent
QB, MIC of PE alone ([4]; day 2 of incubation): 0.24 weight percent and 0.30 weight percent
QB, MIC of PE alone ([4]; day 3 of incubation): 0.24 weight percent and 0.40 weight percent
